“And” between values parts separate entries of the source, which are not always exact repeats. Equal entries are not always repeated. Blank lines part the entries; values can stand above or below the molecule they belong to.
Molecular target: T1, Polyphenol oxidase 2 (Agaricus bisporus, UniProt O42713)
T1 sequence (O42713 whole entry): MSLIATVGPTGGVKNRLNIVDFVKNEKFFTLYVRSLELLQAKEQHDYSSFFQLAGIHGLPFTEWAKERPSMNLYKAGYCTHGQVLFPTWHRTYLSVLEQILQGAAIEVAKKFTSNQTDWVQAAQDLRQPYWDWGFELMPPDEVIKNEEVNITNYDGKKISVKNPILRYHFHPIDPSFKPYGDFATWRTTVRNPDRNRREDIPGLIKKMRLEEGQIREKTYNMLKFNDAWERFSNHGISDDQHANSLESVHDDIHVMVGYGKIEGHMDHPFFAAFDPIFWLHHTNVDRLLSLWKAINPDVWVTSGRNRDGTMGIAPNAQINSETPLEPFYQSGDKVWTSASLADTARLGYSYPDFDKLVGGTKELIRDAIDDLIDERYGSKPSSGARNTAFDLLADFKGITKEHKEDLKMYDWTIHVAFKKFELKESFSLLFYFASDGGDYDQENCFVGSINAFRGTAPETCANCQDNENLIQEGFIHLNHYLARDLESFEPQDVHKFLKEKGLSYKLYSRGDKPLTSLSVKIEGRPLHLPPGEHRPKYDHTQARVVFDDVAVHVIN
Experiment: Tyrosinase Assay
Conditions: 30 °C
Text: Mushroom tyrosinase using either L-DOPA or L-tyrosine as substrate. In spectrophotometric experiments, enzyme activity was monitored by dopachrome formation at 475 nm with a UV-Vis spectrophotometer (Spectro UV-Vis Double beam; UVD-3500, Labomed, Inc.) at 30 C.

SMILES: O=c1cc(-c2ccc(O)cc2O)oc2cc(O)cc(O)c12 [Norartocarpetin, 5]
Ki: 0.61 µM

SMILES: CC(C)=CC1Oc2cc(O)ccc2-c2oc3c4c(cc(O)c3c(=O)c21)OC(C)(C)C=C4 (stereo not drawn) [Cycolmorusin, 2]
IC50: 91.6 µM and 161 µM | Ki: 46.4 µM

SMILES: CC(C)=CCc1c(-c2ccc(O)cc2O)oc2c(CC=C(C)C)c(O)cc(O)c2c1=O
IC50: 135 µM and > 300 µM | Ki: 80.5 µM

Further lines, results first:

IC50: 87.8 µM and 215 µM | Ki: 49.2 µM
SMILES: C/C(=C\Cc1c(-c2ccc(O)cc2O)oc2c3c(cc(O)c2c1=O)OC(C)(CO)C=C3)CO (stereo not drawn) [Mormin, 1]

IC50: > 300 µM
SMILES: CC(C)=CCc1c(-c2ccc(O)cc2O)oc2c3c(cc(O)c2c1=O)OC(C)(C)C=C3 [Morusin, 3]

Source: BindingDB's records for doi:10.1080/14756360701810207 (Gyeongsang National University, 2008)
